Assay [1] deals with sera from colon cancer patients. Kind of assay: Spot assay: reactivity of serologically defined colon cancer antigens with colon cancer patient sera. The settings on record: reactive sera/sera tested; includes autologous where applicable; sera 1:200. Format: binding, human. The method, then:
Serum samples from patients with colon cancer were screened using a modification of the plaque assay, termed a spot assay. In this method, 80×120 mm nitrocellulose membranes were precoated with a film of NZY/0.7% Agarose/2.5 mM IPTG and placed on a reservoir layer of NZY/0.7% Agarose in a 86×128 mm Omni Tray (Nalge Nunc International Corp., Naperville, Ill.). Approximately 1.0×10^5 pfU of monoclonal phage encoding individual serologically defined colon cancer antigens, in a volume of 20 μl, were mixed with 20 μl of exponentially growing E. coli XL-1 Blue MRF and spotted (0.7-μl aliquots) on the precoated nitrocellulose membranes. Membranes were incubated for 15 hours at 37° C. A total of 75 different serologically defined colon cancer antigens were spotted in duplicate per nitrocellulose membrane. The agarose film was then removed from the membrane and the filters were processed for reactivity with individual serum samples (1:200 dilution), as described in Scanlan, et al., Int. J. Cancer 76:652-658 (1998) and Scanlan, et al., Int. J. Cancer 83:456-64, (1999).

For the next assay, the system named is CD4+ T cells. As to the kind of experiment: ELISPOT of peptide-stimulated CD4+ T cells from patients. It counts as cell-based, human. Conditions: autologous targets presenting peptide. As to the method: Given the correlation between humoral and cellular immunity observed with CT antigens such as NY-ESO-1 (Jager et al. J Exp Med. 1998 Jan. 19; 187(2):265-70) and SSX2 (Ayyoub et al. J Immunol. 2002 Feb. 15; 168(4):1717-22, Tureci et al. Cancer Res. 1996 Oct. 15; 56(20):4766-72.), these two patients were analyzed to look for the presence of T cell responses. Nine long peptides (30AA) were synthesized from the sequence of NY-CO-58 (SEQ ID NO:20) on the basis of the presence of anchor motifs for various class I molecules. Five prediction algorithms were used to map potential these potential anchor motifs which correspond to potential epitopes, resulting in the selection of the following polypeptides: 3-32 (SEQ ID NO:31), 51-80 (SEQ ID NO:35), 151-180 (SEQ ID NO:36), 271-300 (SEQ ID NO:37), 375-404 (SEQ ID NO:38), 403-432 (SEQ ID NO:33), 510-539 (SEQ ID NO:39), 633-662 (SEQ ID NO:40), and 692-721 (SEQ ID NO:34).
CD8^+ and CD4^+ T cells were then purified from peripheral blood lymphocytes (PBLs) from the two patients and were stimulated with these peptides either individually or in pools of 2-3 peptides (Gnjatic et al. J Immunol. 2003 Feb. 1; 170(3):1191-6). The stimulated CD8^+ T cells were then tested for recognition of the same stimulator peptide(s), either individually or pools in standard ELISPOT assays (Jager Proc Natl Acad Sci USA. 2000 Apr. 25; 97(9):4760-5, Gnjatic et al. Proc Natl Acad Sci USA. 2000 Sep. 26; 97(20):10917-22).
In these same patients CD4^+ T cell responses were investigated. CD4^+ T cells were stimulated with the peptides individually or in pools of 2-3 peptides as done with CD8^+ T cells. The stimulated peptides were tested in ELISPOT assays using autologous targets presenting the stimulator peptide(s). […] Recognition of control autologous targets, either unpulsed cells or cells presenting irrelevant peptide.
An additional sample of PBLs was obtained from patient UKE-16. The patient remained positive for serum NY-CO-58 specific antibody. Again, CD4^+ T cells were stimulated with peptides derived from the NY-CO-58 sequence. This time additional “minimal” 12-mer epitopes selected from within the 30-mer polypeptides using the ProPred prediction algorithm (Singh, H. and Raghava, G. P. S. (2001) ProPred: Prediction of HLA-DR binding sites. Bioinformatics, 17(12), 1236-37, Propred server available online from Drs Raghava and Singh, Bioinformatics Center, Institute of Microbial Technology, Chandigarh, India). The 12-mer peptides corresponded to amino acid 15-26 (SEQ ID NO:32) and 699-710 (SEQ ID NO:41) of NY-CO-58 (SEQ ID NO:20). Analysis of the responses was carried out by ELISPOT assay as before. Peptide 15-26 was recognized by CD4^+ T cells from patient UKE-16 and represents a minimal epitope within amino acid 3-32 (SEQ ID NO:31). This also confirmed that the T cell reactivity was specific to the peptides and not due to an irrelevant contaminant, which would be unlikely to be present within two separate batches of synthetic peptides.

Assay [2] concerns peripheral blood lymphocytes. Format: cell-based, HHD mice.
In a further assay the test system is splenocytes. It counts as cell-based, HHD mice.

With “CO-95 (KIAA1416): serologically defined colon cancer antigen, protein SEQ ID NO:16”, in assay [1], the “Reactivity of individual antigens” value is recorded as 4/75.
As for “EIYNGKLFDLLNKKAKLRVLEDGKQQVQVV (listed as Homo sapiens) [peptide 403-432, fragment of NY-CO-58, residues 403-432]”, the “CD4+ T cell response, ELISPOT” value in the assay on CD4+ T cells (patient UKE-1) was “responded”.
Consider “KHFSALRDVIKALRLAMQLEEQASRQISSK (listed as Homo sapiens) [692-721, fragment of NY-CO-58, residues 692-721]”, for which the “CD4+ T cell response, ELISPOT” value in the assay with CD4+ T cells (patient UKE-1) is “reactive”; in the assay with CD4+ T cells (patient UKE-16), “reacted very clearly”.
On to KLGLEVYVT (listed as Homo sapiens), for which the “ex vivo ELISPOT response from PBL” value in assay [2] is “not seen”. In addition, in the assay on splenocytes, the “ELISPOT response after in vitro restimulation” value is on record as “responses were detected”.
As to “LAIKIQRSNGLI (listed as Homo sapiens) [peptide 15-26, minimal 12-mer of NY-CO-58, residues 15-26]”, the “CD4+ T cell response, ELISPOT” value in the assay on CD4+ T cells (patient UKE-16) was “recognized”.
For the substance LQARLFPGL (listed as Homo sapiens), the “ex vivo ELISPOT response from PBL” value in assay [2] is “not seen”. The “ELISPOT response after in vitro restimulation” value with splenocytes is “responses were detected”.
As for “MDSSLQARLFPGLAIKIQRSNGLIHSANVR (listed as Homo sapiens) [3-32]”, the results for the “CD4+ T cell response, ELISPOT” value in the assay with CD4+ T cells (patient UKE-1) and in the assay on CD4+ T cells (patient UKE-16) were “reactive” and “reacted very clearly”, respectively.
Consider NLEKSCVSV (listed as Homo sapiens), for which the “ex vivo ELISPOT response from PBL” value in assay [2] is listed as “not seen”. Besides, the “ELISPOT response after in vitro restimulation” value with splenocytes is reported as “responses were detected”.
As to SLLALKECI (listed as Homo sapiens), the “ex vivo ELISPOT response from PBL” value in assay [2] is “showed a response”. For the same substance, the “ELISPOT response after in vitro restimulation” value in the assay with splenocytes is “confirmed”.

(Values after US7803382B2, “Method for inducing immune response to NY-CO-58” (Ludwig Institute for Cancer Research Ltd., priority 2001, dated 2010).)
